Laboratory results published in US9200318B2, “Reduced inhibition of one-step RT-PCR” (Bio Rad Laboratories, Inc., priority 2007, dated 2015).
Read-outs that look alike come from different tables or passages of the source.

Test system: reverse transcriptase
Description: Thaw all components, except the reverse transcriptase, at room temperature. Mix gently, but thoroughly, and then centrifuge at 4° C. to collect contents to the bottom of the tube. Chill on ice before using. Centrifuge again briefly at 4° C. if needed.
To a mixture of Taq DNA polymerase, dNTP (dATP, dCTP, dGTP and dTTP), magnesium chloride, stabilizers and SdC, is added a forward primer, a reverse primer, nuclease-free water and a reverse transcriptase. Assemble the reaction cocktail with all required components except sample template (total RNA) and dispense equal aliquots into each reaction tube. Add target sample (RNA template) to each reaction as the final step 5-10 μl volumes.
The reaction mixture is then incubated in a real-time thermal detection system as follows: • cDNA synthesis: 10 min at 50° C. • reverse transcriptase inactivation: 5 min at 95° C. • PCR cycling and detection (30 to 45 cycles): 10 sec at 95° C., followed by 30 sec at 55° C. to 60° C.

phosphorothioate oligodeoxycytosine [SdC]
inhibition of reverse transcriptase in one-step RT-PCR (0.1, 0.5, 2 and 10 nM SdC): reduces the inhibition of reverse transcriptase
specificity of one-step RT-PCR (0.1, 0.5, 2 and 10 nM SdC): significantly improves the specificity of one-step RT-PCR

Cc1ccc(C(=O)Nc2ccc(S(=O)(=O)O)c3cc(S(=O)(=O)O)cc(S(=O)(=O)O)c23)cc1NC(=O)c1cccc(NC(=O)Nc2cccc(C(=O)Nc3cc(C(=O)Nc4ccc(S(=O)(=O)O)c5cc(S(=O)(=O)O)cc(S(=O)(=O)O)c45)ccc3C)c2)c1 [suramin]
inhibition of reverse transcriptase in one-step RT-PCR (4 ng/μl suramin vs absence): reduces the inhibition of reverse transcriptase
specificity of one-step RT-PCR (4 ng/μl suramin vs absence): significantly improves the specificity of one-step RT-PCR
